pIC50: −log10 of the molar value.
Molecular target: Alpha-glucosidase MAL32 (Saccharomyces cerevisiae (strain ATCC 204508 / S288c), UniProt P38158)
Assay: In Vitro α-Glucosidase Inhibitory Assay
Conditions: pH 6.8; 37 °C
Protocol: The α-glucosidase inhibition assay had been carried out using baker's yeast α-glucosidase (EC 3.2.1.20) and p-nitrophenyl α-d-glucopyranoside. The test compounds were dissolved in DMSO to prepare the required distributing concentration. α-Glucosidase inhibitory activity was assayed by using 0.1 M phosphate buffer (pH 6.8) at 37 °C. The enzyme (0.1 U/mL) in phosphate buffer saline was incubated with various concentrations of test compounds at 37 °C for 15 min. […] After further incubation at 37 °C for 30 min. […] The sample solution was replaced by DMSO as a control. Acarbose was used as a positive control. All experiments were carried out in triplicates.

Alpha-glucosidase MAL32, sequence (P38158 whole entry): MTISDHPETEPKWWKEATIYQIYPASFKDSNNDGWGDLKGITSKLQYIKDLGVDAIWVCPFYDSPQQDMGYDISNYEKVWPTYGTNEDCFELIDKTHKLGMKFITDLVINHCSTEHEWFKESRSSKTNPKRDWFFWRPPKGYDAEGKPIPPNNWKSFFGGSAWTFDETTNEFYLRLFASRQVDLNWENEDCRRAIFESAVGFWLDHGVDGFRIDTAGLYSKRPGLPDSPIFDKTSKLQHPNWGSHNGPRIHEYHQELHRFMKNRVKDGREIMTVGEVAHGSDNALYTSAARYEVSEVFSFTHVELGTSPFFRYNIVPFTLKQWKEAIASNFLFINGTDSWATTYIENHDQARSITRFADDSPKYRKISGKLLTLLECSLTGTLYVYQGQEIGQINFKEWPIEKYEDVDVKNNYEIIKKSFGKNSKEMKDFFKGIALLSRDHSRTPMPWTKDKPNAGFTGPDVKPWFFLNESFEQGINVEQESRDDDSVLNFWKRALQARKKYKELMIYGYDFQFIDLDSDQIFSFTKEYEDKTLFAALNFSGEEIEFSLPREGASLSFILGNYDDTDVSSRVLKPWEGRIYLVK

Structure (SMILES)	pIC50
O=C1Nc2ccccc2C1(c1cn(Cc2ccccc2F)c2ccccc12)c1cn(Cc2ccccc2F)c2ccccc12 [1,1''-bis(2-Fluorobenzyl)-[3,3':3',3''-terindolin]-2'-one (4j)]	5.22
O=C1Nc2ccc(Br)cc2C1(c1c[nH]c2ccccc12)c1c[nH]c2ccccc12 [5'-Bromo-1H,1''H-[3,3':3',3''-terindol]-2'(1'H)-one (4b)]	4.69
O=C1Nc2ccccc2C1(c1cn(Cc2ccccc2Cl)c2ccccc12)c1cn(Cc2ccccc2Cl)c2ccccc12 [1,1''-bis(2-Chlorobenzyl)-[3,3':3',3''-terindolin]-2'-one (4i)]	5.14
O=C1Nc2ccccc2C1(c1cn(Cc2cccc(F)c2)c2ccccc12)c1cn(Cc2cccc(F)c2)c2ccccc12 [1,1''-bis(3-Fluorobenzyl)-1H,1''H-[3,3':3',3''-terindol]-2'(1'H)-one (4g)]	5.10
CCCCn1cc(C2(c3cn(CCCC)c4ccccc34)C(=O)Nc3ccccc32)c2ccccc21 [1,1''-Dibutyl-[3,3':3',3''-terindolin]-2'-one (4m)]	4.87
CC(C)n1cc(C2(c3cn(C(C)C)c4ccccc34)C(=O)Nc3ccccc32)c2ccccc21 [1,1''-Diisopropyl-[3,3':3',3''-terindolin]-2'-one (4l)]	4.99
Cc1ccc2c(c1)C(c1c[nH]c3ccccc13)(c1c[nH]c3ccccc13)C(=O)N2 [5'-Methyl-1H,1''H-[3,3':3',3''-terindol]-2'(1'H)-one (4d)]	4.52
O=C1Nc2ccccc2C1(c1cn(Cc2ccc(Br)cc2)c2ccccc12)c1cn(Cc2ccc(Br)cc2)c2ccccc12 [1,1''-bis(4-Bromobenzyl)-1H,1''H-[3,3':3',3''-terindol]-2'(1'H)-one (4h)]	5.04
CC(C)Cn1cc(C2(c3cn(CC(C)C)c4ccccc34)C(=O)Nc3ccccc32)c2ccccc21 [1,1''-Diisobutyl-[3,3':3',3''-terindolin]-2'-one (4n)]	4.83
CCCn1cc(C2(c3cn(CCC)c4ccccc34)C(=O)Nc3ccccc32)c2ccccc21 [1,1''-Dipropyl-[3,3':3',3''-terindolin]-2'-one (4k)]	4.96
O=C1Nc2ccccc2C1(c1cn(Cc2ccccc2)c2ccccc12)c1cn(Cc2ccccc2)c2ccccc12 [1,1''-Dibenzyl-1H,1''H-[3,3':3',3''-terindol]-2'(1'H)-one (4f)]	5.01
Cn1cc(C2(c3cn(C)c4ccccc34)C(=O)Nc3ccccc32)c2ccccc21 [1,1''-Dimethyl-1H,1''H-[3,3':3',3''-terindol]-2'(1'H)-one (4e)]	4.86
O=C1Nc2ccccc2C1(c1c[nH]c2ccccc12)c1c[nH]c2ccccc12 [1H,1''H-[3,3':3',3''-terindol]-2'(1'H)-one (4a)]	3.84
